Data from patent EP0358152A1, “Diazine-substituted 1-adamantanes, process for their preparation, and their use as medicaments” (priority 1988, dated 1990).
Several values for one entry are separate records, joined by “and”; a condition that tells them apart may be missing. Identical values can stand only once.

Columns and labels:
[1] = system: Subtyp H3N2 A/Philippines 2/82; type: cell-based, Influenzaviren Typ A
[2] = system: Subtyp H2N2 A/Singapore 1/57; type: cell-based, Influenzaviren Typ A
[3] = system: Subtyp H3N2 A/Hongkong 1/68; type: cell-based, Influenzaviren Typ A
[4] = system: Typ B B/Singapore 222/79; type: cell-based, Influenzaviren Typ B
[5] = system: Subtyp H1N1 A/Brasil 11/78; type: cell-based, Influenzaviren Typ A
[6] = system: A/Krasnodar 101/59; type: cell-based, Influenzaviren Typ A
[7] = system: Influenzaviren vom Typ B; assay: Inhibitory effect on influenza viruses of type B; type: cell-based; settings: statement in words
[8] = system: Influenzavirus Typ A Subtyp H1N1 A/Taiwan 1/86; type: cell-based

c1cnc(C23CC4CC(CC(C4)C2)C3)cn1 [2-(Adamant-1-yl)-pyrazin, 2-(Adamant-1-yl-)-pyrazin]
ID50 mit Wirkstoff (log 10) [1]: 5,5 log 10
Titerdifferenz (log 10) [1]: 0,33 log 10 and 0,83 log 10
Titerdifferenz (log 10) [2]: 1,51 log 10 and 1,33 log 10 and 1,17 log 10

Cc1cc(C23CC4CC(CC(C4)C2)C3)ncn1 [6-(Adamant-1-yl)-4-methyl-pyrimidin, 6-(Adamant-1-yl)-4-methylpyrimidin]
ID50 mit Wirkstoff (log 10) [3]: 3,83 log 10
Titerdifferenz (log 10) [3]: 0,92 log 10
ID50 mit Wirkstoff (log 10) [4]: 5,67 log 10
Titerdifferenz (log 10) [4]: 0,66 log 10 and 0,5 log 10
ID50 mit Wirkstoff (log 10) [1]: 5,0 log 10 and 5,67 log 10
ID50 mit Wirkstoff (log 10) [5]: 3,83 log 10 and 3,33 log 10 and 3,0 log 10
ID50 mit Wirkstoff (log 10) [6]: 2,5 log 10
Titerdifferenz (log 10) [6]: 2,5 log 10

Nc1nccc(C23CC4CC(CC(C4)C2)C3)n1 [4-(Adamant-1-yl)-2-amino-pyrimidin, 4-(Adamant-1-yl)-2-aminopyrimidin]
Titerdifferenz (log 10) [2]: 1,55 log 10 and 1,67 log 10
Titerdifferenz (log 10) [5]: 2,8 log 10 and 2,0 log 10

CC(N)C12CC3CC(CC(C3)C1)C2.Cl (stereo not drawn) [Rimantadin, α-Methyl-1-adamantanmethylaminhydrochlorid]
Hemmwirkung gegenüber Influenzaviren vom Typ B [7]: nicht spezifisch wirksam
Titerreduktion (log 10) [1]: 0,17 log 10
Titerreduktion (log 10) [8]: 1,5 log 10 and 1,84 log 10
ID₅₀ (log 10) mit Wirkstoff [2]: 2,5 log 10

Cc1cncc(C23CC4CC(CC(C4)C2)C3)n1 [6-(Adamant-1-yl)-2-methyl-pyrazin, 6-(Adamant-1-yl)-2-methylpyrazin]
ID50 mit Wirkstoff (log 10) [5]: 3,33 log 10 and 3,67 log 10
Titerdifferenz (log 10) [5]: 1,97 log 10 and 1,66 log 10

c1cc(C23CC4CC(CC(C4)C2)C3)ncn1 [4-(Adamant-1-yl)-pyrimidin]
ID50 mit Wirkstoff (log 10) [1]: 5,17 log 10
Titerdifferenz (log 10) [2]: 1,33 log 10 and 1,5 log 10 and 1,34 log 10
